From US20010044445A1, “AZOLE INHIBITORS OF CYTOKINE PRODUCTION” (priority 1999, published 2001)

How the values were obtained:
[1] = test system: Human peripheral blood mononuclear cells; test: Human Concanavalin-A Proliferation Assay (Con HU Assay); assay type: cell-based; settings: Homo sapiens, PBMC, concanavalin-A stimulated human PBMC; for inhibition at 10 µM / inhibition at 1 µM / inhibition at 100 µM: 72 h, 3 days, read-out: % Inhibition of proliferation (at concentrations of 1,10, or 100 μm); for inhibition at 10 µM: concentration 10 μm (in parentheses in the cell); for IC50: tritiated thymidine; for inhibition at 1 µM: concentration 1 μm (in parentheses in the cell); for inhibition at 100 µM: concentration 100 μm (in parentheses in the cell)
Procedure, shortened: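 Histopaque-isolated human PBMC (50,000/well) were pre-incubated 15 min with compounds, then stimulated with concanavalin-A at 2.5 μg/ml final for 3 days at 37 °C, 5% CO2. Proliferation measured by 6 h pulse with 0.5 μCi/well [3H]thymidine and beta counting.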

Compound | melting point [°C] | inhibition at 10 µM [1] [%] | IC50 [1] [nM] | inhibition at 1 µM [1] [%] | inhibition at 100 µM [1] [%]
O=C(Nc1ccc(-n2nc(C(F)(F)F)cc2C(F)(F)F)cc1)Nc1cccc([N+](=O)[O-])c1 [Example 31, N-[4-[3,5-bis(trifluoromethyl)-1H-pyrazol-1-yl]phenyl]-N′-(3-nitrophenyl)urea] | 203 to 204 | – | 4040 | – | 100
O=C(Nc1ccc(-n2nc(C(F)(F)F)cc2C(F)(F)F)c(C(F)(F)F)c1)c1ccc(Cl)cc1 [Example 271, N-[4-[3,5-bis(trifluoromethyl)-1H-pyrazol-1-yl]-3-(trifluoromethyl)phenyl]-4-chlorobenzamide] | 65 to 67 | – | – | 14 | –
O=C(Nc1ccc(-n2nc(C(F)(F)F)cc2C(F)(F)F)cc1)c1cc2ccccc2o1 [Example 19, N-[4-[3,5-bis(trifluoromethyl)-1H-pyrazol-1-yl]phenyl]-2-benzofurancarboxamide] | 213 to 215 | – | – | 9 | –
O=C(Nc1ccc(-n2nc(C(F)(F)F)cc2C(F)(F)F)cc1)c1ccc(F)cc1C(F)(F)F [Example 201, N-[4-[3,5-bis(trifluoromethyl)-1H-pyrazol-1-yl]phenyl]-4-fluoro-2-(trifluoromethyl)benzamide] | 178 to 179 | 100 | 364 | – | –
CC(=O)c1ccc(NC(=O)Nc2ccc(-n3nc(C(F)(F)F)cc3C(F)(F)F)cc2)cc1 [Example 42, N-(4-acetylphenyl)-N′-[4-[3,5-bis(trifluoromethyl)-1H-pyrazol-1-yl]phenyl]urea] | 230 to 231 | – | – | 9 | –
COc1cc(C(F)(F)F)nn1-c1ccc(NC(=O)c2ccccc2F)cc1 [Example 313, 2-fluoro-N-(4-(5-methoxy-3-(trifluoromethyl)-1H-pyrazol-1-yl)phenyl)benzamide] | 167 to 168 | – | 66 | – | –
O=C(Nc1c(F)cccc1F)c1ccc(-n2nc(C(F)(F)F)cc2C(F)(F)F)cc1 [Example 191, 4-[3,5-Bis(trifluoromethyl)-1H-pyrazol-1-yl]-N-(2,6-difluorophenyl)benzamide] | 187 to 188 | – | 116 | 99 | –
[N-]=[N+]=Nc1ccc(C(=O)Nc2ccc(-n3nc(C(F)(F)F)cc3C(F)(F)F)cc2)cc1 [Example 60, 4-Azido-N-[4-[3,5-bis(trifluoromethyl)-1H-pyrazol-1-yl]phenyl]benzamide] | 182 to 184 | – | 296 | – | 100
O=C(Nc1ccc(-n2nc(C(F)(F)F)cc2C(F)(F)F)cc1)c1ccc(F)c(C(F)(F)F)c1 [Example 195, N-[4-[3,5-bis(trifluoromethyl)-1H-pyrazol-1-yl]phenyl]-4-fluoro-3-(trifluoromethyl)benzamide] | 142 to 144 | – | – | 22 | –
O=C(Nc1ccc(-n2nc(C3CCCO3)cc2C(F)(F)F)cc1)c1ccncc1F (centres unmarked) [Example 345, 3-fluoro-N-(4-(3-tetrahydro-2-furanyl-5-(trifluoromethyl)-1H-pyrazol-1-yl)phenyl)isonicotinamide] | 116 to 118 | – | 273 | – | –
NC(=O)c1cccc(C(=O)Nc2ccc(-n3nc(C(F)(F)F)cc3C(F)(F)F)cc2)c1 [Example 138, N-[4-[3,5-bis(trifluoromethyl)-1H-pyrazol-1-yl]phenyl]-1,3-benzenedicarboxamide] | 244 to 245 | 99 | 364 | – | –
O=C(Nc1ccc(-n2nc(C(F)(F)F)cc2C(F)(F)F)cc1)c1c(F)c(F)cc(F)c1F [Example 234, N-[4-[3,5-bis(trifluoromethyl)-1H-pyrazol-1-yl]phenyl]-2,3,5,6-tetrafluorobenzamide] | 235 to 237 | 99 | 61 | – | –
O=C(Nc1ccc(-n2nc(C(F)(F)F)cc2OC(F)F)cc1)c1ccncc1F [Example 327, N-(4-(5-(difluoromethoxy)-3-(trifluoromethyl)-1H-pyrazol-1-yl)phenyl)-3-fluoroisonicotinamide] | 135 to 136 | – | 82 | – | –
CCC(NC(=O)OCc1ccccc1)C(=O)Nc1ccc(-n2nc(C(F)(F)F)cc2C(F)(F)F)cc1 (centres unmarked) [Example 28, phenylmethyl [1-[[[4-[3,5-bis(trifluoromethyl)-1H-pyrazol-1-yl]phenyl]amino]carbonyl]propyl]carbamate] | 158 to 160 | – | – | 12 | –
N#Cc1ccccc1NC(=O)c1ccc(-n2nc(C(F)(F)F)cc2C(F)(F)F)cc1 [Example 188, 4-[3,5-Bis(trifluoromethyl)-1H-pyrazol-1-yl]-N-(2-cyanophenyl)benzamide] | 203 to 205 | 87 | 485 | – | –

The next lines start with results.

melting point [°C] | Compound | inhibition at 10 µM [1] [%] | IC50 [1] [nM] | inhibition at 1 µM [1] [%] | inhibition at 100 µM [1] [%]
143 to 145 | CC1(C(=O)Nc2ccc(-n3nc(C(F)(F)F)cc3C(F)(F)F)cc2)CC1(Cl)Cl (centres unmarked) [Example 3, N-[4-[3,5-bis(trifluoromethyl)-1H-pyrazol-1-yl]phenyl]-2,2-dichloro-1-methylcyclopropanecarboxamide] | 100 | 328 | – | –
88 to 90 | CCCCCCC(=O)Nc1ccc(-n2nc(C(F)(F)F)cc2C(F)(F)F)cc1 [Example 56, N-[4-[3,5-bis(trifluoromethyl)-1H-pyrazol-1-yl]phenyl]heptanamide] | – | – | 32 | –
188 to 189 | Cc1ccc([N+](=O)[O-])c(C(=O)Nc2ccc(-n3nc(C(F)(F)F)cc3C(F)(F)F)cc2)c1 [Example 237, N-[4-[3,5-bis(trifluoromethyl)-1H-pyrazol-1-yl]phenyl]-5-methyl-2-nitrobenzamide] | – | 368 | – | 100
205 to 207 | COc1ccc(C(=O)Nc2ccc(-n3nc(C(F)(F)F)cc3C(F)(F)F)cc2)cc1 [Example 71, N-[4-[3,5-bis(trifluoromethyl)-1H-pyrazol-1-yl]phenyl]-4-methoxybenzamide] | 87 | 544 | – | –
163 to 167 | Cc1oncc1C(=O)Nc1ccc(-n2nc(C(F)(F)F)cc2C(F)(F)F)cc1 [Example 184, N-[4-[3,5-bis(trifluoromethyl)-1H-pyrazol-1-yl]phenyl]-5-methyl-4-isoxazolecarboxamide] | 90 | 420 | – | –
169 to 170 | O=C(Nc1ccc(-n2nc(C(F)(F)F)cc2C(F)(F)F)cc1)c1cc(F)cc(F)c1F [Example 231, N-[4-[3,5-bis(trifluoromethyl)-1H-pyrazol-1-yl]phenyl]-2,3,5-trifluorobenzamide] | 100 | 25 | – | –
94 to 95 | CC(=O)N1CCC(C(=O)Nc2ccc(-n3nc(C(F)(F)F)cc3C(F)(F)F)cc2)CC1 [Example 174, 1-Acetyl-N-[4-[3,5-bis(trifluoromethyl)-1H-pyrazol-1-yl]phenyl]-4-piperidinecarboxamide] | 99 | 730 | – | –
144 to 145 | O=C(CCCl)Nc1ccc(-n2nc(C(F)(F)F)cc2C(F)(F)F)cc1 [Example 70, N-[4-[3,5-bis(trifluoromethyl)-1H-pyrazol-1-yl]phenyl]-3-chloropropanamide] | – | 913 | – | 100
183 to 184 | O=C(Nc1ccc(-n2nc(C(F)(F)F)cc2C(F)(F)F)cc1)c1ccnc(Cl)c1 [Example 245, N-[4-[3,5-bis(trifluoromethyl)-1H-pyrazol-1-yl]phenyl]-2-chloro-4-pyridinecarboxamide] | – | 279 | – | 100
118 to 119 | O=C(Nc1ccc(-n2nc(C(F)(F)F)cc2C(F)(F)F)cc1)c1nc(Cl)ccc1Cl [Example 167, N-[4-[3,5-bis(trifluoromethyl)-1H-pyrazol-1-yl]phenyl]-3,6-dichloro-2-pyridinecarboxamide] | – | 279 | – | 100
204 to 206 | Nc1ccccc1C(=O)Nc1ccc(-n2nc(C(F)(F)F)cc2C(F)(F)F)cc1 [Example 163, 2-amino-N-[4-[3,5-bis(trifluoromethyl)-1H-pyrazol-1-yl]phenyl]benzamide] | – | 235 | – | 98
127 to 128 | O=C(Nc1ccc(-n2nc(C(F)(F)F)cc2C(F)(F)F)cc1)c1c(F)cccc1F [Example 160, N-[4-[3,5-bis(trifluoromethyl)-1H-pyrazol-1-yl]phenyl]-2,6-difluorobenzamide] | – | – | 1 | –
183 to 185 | O=C(Nc1ccc(-n2nc(C(F)(F)F)cc2C(F)(F)F)cc1)c1c(F)cc(F)cc1F [Example 229, N-[4-[3,5-bis(trifluoromethyl)-1H-pyrazol-1-yl]phenyl]-2,4,6-trifluorobenzamide] | 99 | 40 | – | –
185 to 188 | O=C(Nc1ccc(-n2nc(C(F)(F)F)cc2C(F)(F)F)cc1)c1cccnc1 [Example 106, N-[4-[3,5-bis(trifluoromethyl)-1H-pyrazol-1-yl]phenyl]-3-pyridinecarboxamide] | 100 | 237 | – | –
185 to 188 | O=C(Nc1ccc(-n2nc(C(F)(F)F)cc2C(F)(F)F)cc1)c1ccc([N+](=O)[O-])cc1 [Example 93, N-[4-[3,5-bis(trifluoromethyl)-1H-pyrazol-1-yl]phenyl]-4-nitrobenzamide] | – | 365 | – | 100
